Source: patent US10710978B2, “STK4 inhibitors for treatment of hematologic malignancies” (Dana-Farber Cancer Institute, Inc., priority 2015, dated 2020)
Read-outs that look alike come from different tables or passages of the source.

Assays:
Test in all cases: KiNativ assay
Type in all cases: binding
PYK2 = PYK2 (Homo sapiens (Human), UniProt Q14289); conditions: H929 live cell
Summary of the method: (§1)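 Each compound is applied at 10 μM to live H929 cells in duplicate. Kinase activity-site labelling is then analysed by KiNativ. IC50 is obtained by mass spectrometry.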

Erk5 = Erk5 (Homo sapiens (Human), UniProt Q13164); conditions: H929 live cell
Summary of the method: as §1

MAP3K6 = MAP3K6 (Homo sapiens (Human), UniProt O95382); conditions: H929 live cell
Summary of the method: as §1

PAK2 = PAK2 (Homo sapiens (Human), UniProt Q13177); conditions: H929 live cell
Summary of the method: as §1

LATS2 = LATS2 (Homo sapiens (Human), UniProt Q9NRM7); conditions: H929 live cell
Chain of LATS2 (Q9NRM7 whole entry): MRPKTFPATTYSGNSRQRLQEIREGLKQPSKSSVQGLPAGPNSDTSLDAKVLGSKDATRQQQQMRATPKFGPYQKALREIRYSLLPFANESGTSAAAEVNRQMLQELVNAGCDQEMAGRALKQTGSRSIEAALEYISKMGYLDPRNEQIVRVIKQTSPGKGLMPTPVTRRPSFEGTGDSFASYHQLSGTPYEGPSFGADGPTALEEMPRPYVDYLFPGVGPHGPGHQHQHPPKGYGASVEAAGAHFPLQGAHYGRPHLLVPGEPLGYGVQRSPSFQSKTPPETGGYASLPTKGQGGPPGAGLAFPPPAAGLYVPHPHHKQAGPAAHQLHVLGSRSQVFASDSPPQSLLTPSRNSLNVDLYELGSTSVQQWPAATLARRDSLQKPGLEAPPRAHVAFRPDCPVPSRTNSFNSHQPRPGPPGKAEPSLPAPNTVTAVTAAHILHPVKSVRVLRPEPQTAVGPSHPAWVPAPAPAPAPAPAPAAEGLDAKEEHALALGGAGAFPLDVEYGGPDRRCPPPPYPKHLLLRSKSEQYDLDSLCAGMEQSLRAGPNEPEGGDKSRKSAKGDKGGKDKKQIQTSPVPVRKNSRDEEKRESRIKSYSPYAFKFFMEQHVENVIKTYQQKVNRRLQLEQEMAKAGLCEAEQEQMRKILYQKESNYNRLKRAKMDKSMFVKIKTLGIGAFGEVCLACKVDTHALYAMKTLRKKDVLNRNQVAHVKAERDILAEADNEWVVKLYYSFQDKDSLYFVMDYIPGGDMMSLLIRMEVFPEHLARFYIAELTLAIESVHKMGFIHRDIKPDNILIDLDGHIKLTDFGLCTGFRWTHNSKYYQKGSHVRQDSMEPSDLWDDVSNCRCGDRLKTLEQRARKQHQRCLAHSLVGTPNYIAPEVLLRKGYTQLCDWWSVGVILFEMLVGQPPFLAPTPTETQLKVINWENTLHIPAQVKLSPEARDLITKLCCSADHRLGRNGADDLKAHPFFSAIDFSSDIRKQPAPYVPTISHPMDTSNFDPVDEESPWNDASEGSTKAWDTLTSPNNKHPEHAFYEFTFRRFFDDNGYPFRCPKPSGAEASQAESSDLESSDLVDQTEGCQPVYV
Summary of the method: as §1

PIP4K2B = PIP4K2B (Homo sapiens (Human), UniProt P78356); conditions: H929 live cell
Chain of PIP4K2B (P78356 whole entry): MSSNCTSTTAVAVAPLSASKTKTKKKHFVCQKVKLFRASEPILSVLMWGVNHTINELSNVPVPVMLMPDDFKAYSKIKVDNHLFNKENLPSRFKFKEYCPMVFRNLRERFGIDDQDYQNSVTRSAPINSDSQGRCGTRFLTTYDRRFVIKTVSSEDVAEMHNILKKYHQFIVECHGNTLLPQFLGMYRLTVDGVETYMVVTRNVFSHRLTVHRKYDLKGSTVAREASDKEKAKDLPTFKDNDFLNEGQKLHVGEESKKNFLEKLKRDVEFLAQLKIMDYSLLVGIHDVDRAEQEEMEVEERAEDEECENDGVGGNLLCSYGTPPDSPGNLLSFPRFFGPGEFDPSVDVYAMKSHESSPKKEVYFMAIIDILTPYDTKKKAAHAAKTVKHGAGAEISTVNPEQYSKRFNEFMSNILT
Summary of the method: as §1

MER, TYRO3 = conditions: H929 live cell; for % inhibition: 10 μM, range class
Summary of the method: as §1

GAK = GAK (Homo sapiens (Human), UniProt O14976); conditions: H929 live cell
Chain of GAK (O14976 whole entry): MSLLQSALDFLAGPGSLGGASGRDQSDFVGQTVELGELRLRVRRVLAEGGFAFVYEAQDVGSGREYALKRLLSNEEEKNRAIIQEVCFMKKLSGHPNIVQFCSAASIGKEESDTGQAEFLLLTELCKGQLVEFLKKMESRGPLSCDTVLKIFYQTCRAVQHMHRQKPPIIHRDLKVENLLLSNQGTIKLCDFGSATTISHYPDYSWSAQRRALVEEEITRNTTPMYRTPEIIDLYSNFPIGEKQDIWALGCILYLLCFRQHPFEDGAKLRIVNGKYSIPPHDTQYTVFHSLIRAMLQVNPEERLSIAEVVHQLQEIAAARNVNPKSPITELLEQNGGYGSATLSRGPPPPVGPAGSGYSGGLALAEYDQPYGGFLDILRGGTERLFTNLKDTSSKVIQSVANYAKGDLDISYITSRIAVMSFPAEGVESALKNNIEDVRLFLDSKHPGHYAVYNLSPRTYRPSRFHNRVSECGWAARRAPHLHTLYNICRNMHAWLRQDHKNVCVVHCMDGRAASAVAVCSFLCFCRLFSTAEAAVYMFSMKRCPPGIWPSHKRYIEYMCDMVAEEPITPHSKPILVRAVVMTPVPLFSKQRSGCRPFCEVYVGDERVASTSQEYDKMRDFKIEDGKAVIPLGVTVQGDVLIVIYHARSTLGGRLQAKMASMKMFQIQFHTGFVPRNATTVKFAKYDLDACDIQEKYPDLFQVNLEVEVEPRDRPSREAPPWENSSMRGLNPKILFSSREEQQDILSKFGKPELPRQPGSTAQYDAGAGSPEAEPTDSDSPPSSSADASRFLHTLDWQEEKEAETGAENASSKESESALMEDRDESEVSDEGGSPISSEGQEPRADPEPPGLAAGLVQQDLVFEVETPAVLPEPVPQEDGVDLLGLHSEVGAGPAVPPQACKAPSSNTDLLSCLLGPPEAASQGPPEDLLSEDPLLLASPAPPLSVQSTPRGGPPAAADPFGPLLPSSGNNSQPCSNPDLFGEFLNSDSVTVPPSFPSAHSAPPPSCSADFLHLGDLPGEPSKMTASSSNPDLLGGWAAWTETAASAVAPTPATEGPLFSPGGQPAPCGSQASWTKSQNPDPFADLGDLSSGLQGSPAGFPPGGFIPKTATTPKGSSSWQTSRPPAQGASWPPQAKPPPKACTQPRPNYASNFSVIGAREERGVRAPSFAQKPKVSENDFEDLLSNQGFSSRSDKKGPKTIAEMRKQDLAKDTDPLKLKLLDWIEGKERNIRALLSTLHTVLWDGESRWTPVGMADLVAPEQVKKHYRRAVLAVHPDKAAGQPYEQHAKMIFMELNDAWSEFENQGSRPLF
Summary of the method: as §1

MAP3K3 = MAP3K3 (Homo sapiens (Human), UniProt Q99759); conditions: H929 live cell
Chain of MAP3K3 (Q99759 whole entry): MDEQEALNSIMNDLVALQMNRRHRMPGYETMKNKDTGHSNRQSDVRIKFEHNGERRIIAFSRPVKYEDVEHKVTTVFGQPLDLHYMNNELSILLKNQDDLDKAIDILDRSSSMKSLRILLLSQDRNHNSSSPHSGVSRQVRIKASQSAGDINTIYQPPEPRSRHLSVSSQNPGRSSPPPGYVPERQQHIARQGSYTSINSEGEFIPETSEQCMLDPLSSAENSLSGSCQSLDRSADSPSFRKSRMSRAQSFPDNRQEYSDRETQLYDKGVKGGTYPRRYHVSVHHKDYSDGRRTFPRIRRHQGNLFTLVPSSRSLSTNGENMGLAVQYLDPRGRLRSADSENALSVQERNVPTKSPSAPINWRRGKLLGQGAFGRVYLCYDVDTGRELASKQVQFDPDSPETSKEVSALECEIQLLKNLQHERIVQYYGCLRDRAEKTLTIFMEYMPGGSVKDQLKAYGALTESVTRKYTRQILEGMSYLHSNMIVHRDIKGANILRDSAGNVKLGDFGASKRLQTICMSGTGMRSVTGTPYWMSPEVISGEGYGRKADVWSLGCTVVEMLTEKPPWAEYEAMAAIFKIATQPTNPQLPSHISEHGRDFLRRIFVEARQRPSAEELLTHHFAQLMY
Summary of the method: as §1

TAK1 = TAK1 (Homo sapiens (Human), UniProt O43318); conditions: H929 live cell
Summary of the method: as §1

PCTAIRE1, PCTAIRE3 = conditions: H929 live cell; for % inhibition: 10 μM, range class
Summary of the method: as §1

ULK3 = ULK3 (Homo sapiens (Human), UniProt Q6PHR2); conditions: H929 live cell
Chain of ULK3 (Q6PHR2 whole entry): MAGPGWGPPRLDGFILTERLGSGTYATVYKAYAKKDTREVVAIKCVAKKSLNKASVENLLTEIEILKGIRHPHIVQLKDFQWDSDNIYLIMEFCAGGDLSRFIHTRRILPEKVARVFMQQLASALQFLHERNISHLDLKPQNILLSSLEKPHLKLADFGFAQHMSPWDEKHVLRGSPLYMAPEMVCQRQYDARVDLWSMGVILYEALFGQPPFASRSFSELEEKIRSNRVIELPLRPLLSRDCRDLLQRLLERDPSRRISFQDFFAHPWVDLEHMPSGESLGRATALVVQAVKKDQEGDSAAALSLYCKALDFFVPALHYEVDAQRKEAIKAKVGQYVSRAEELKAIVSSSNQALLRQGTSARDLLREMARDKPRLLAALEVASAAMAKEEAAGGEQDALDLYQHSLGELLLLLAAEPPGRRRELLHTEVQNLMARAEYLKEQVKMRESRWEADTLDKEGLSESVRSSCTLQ
Summary of the method: as §1

MAP3K15 = MAP3K15 (Homo sapiens (Human), UniProt Q6ZN16); conditions: H929 live cell
Summary of the method: as §1

AGK = AGK (Homo sapiens (Human), UniProt Q53H12); conditions: H929 live cell
Chain of AGK (Q53H12 whole entry): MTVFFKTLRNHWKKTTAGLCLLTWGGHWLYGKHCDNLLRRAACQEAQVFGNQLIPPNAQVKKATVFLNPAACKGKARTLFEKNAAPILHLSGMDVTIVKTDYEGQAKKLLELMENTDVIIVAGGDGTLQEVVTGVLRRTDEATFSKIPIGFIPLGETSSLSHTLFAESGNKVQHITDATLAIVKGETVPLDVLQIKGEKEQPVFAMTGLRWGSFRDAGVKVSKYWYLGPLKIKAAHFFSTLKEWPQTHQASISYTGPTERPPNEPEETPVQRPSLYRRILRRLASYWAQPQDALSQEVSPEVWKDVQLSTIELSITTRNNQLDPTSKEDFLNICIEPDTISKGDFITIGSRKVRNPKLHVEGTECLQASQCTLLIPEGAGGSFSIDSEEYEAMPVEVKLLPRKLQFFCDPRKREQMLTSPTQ
Summary of the method: as §1

MELK = MELK (Homo sapiens (Human), UniProt Q14680); conditions: H929 live cell
Chain of MELK (Q14680 whole entry): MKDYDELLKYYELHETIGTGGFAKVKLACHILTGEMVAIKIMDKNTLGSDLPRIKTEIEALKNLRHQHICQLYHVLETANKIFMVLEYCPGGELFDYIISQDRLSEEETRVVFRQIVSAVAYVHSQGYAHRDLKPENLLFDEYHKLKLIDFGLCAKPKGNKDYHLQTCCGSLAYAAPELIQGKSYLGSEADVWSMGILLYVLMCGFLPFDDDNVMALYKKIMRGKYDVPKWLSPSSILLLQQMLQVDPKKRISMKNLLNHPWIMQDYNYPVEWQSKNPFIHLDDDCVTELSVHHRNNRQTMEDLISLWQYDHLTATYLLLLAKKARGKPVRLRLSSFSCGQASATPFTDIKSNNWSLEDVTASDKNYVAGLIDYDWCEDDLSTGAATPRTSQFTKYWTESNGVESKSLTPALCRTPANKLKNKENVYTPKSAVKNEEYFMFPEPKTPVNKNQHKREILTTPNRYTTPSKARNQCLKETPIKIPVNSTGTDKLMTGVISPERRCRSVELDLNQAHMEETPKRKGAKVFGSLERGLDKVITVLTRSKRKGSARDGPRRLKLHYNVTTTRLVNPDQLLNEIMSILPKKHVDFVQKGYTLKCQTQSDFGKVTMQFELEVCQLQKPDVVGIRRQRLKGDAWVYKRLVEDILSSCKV
Summary of the method: as §1

PCTAIRE2, PCTAIRE3 = conditions: H929 live cell; for % inhibition: 10 μM, range class
Summary of the method: as §1

LZK = LZK (Homo sapiens (Human), UniProt O43283); conditions: H929 live cell
Summary of the method: as §1

[1] = system: ALK2, ALK4, ALK7, BMPR1B, TGFbR1; conditions: H929 live cell; for % inhibition: 10 μM, range class
Summary of the method: as §1

MLK4 = MLK4 (Homo sapiens (Human), UniProt Q5TCX8); conditions: H929 live cell
Summary of the method: as §1

CLK3 = CLK3 (Homo sapiens (Human), UniProt P49761); conditions: H929 live cell
Summary of the method: as §1

[2] = range class, read-out: % inhibition

COc1cc(NS(=O)(=O)C2CC2)ccc1-c1cnc(N)c(-c2ccc3c(c2)CCNC3=O)c1 [Compound I-50, N-(4-(6-amino-5-(1-oxo-1,2,3,4-tetrahydroisoquinolin-6-yl)pyridin-3-yl)-3-methoxyphenyl) cyclopropanesulfonamide]
inhibition at 10 µM (PYK2; [2]): 0% | inhibition at 10 µM (PYK2; read-out: inhibition (10 μM)): 31.5% | inhibition at 10 µM (Erk5; [2]): 0% | inhibition at 10 µM (Erk5; read-out: inhibition (10 μM)): -2.8% | inhibition at 10 µM (MAP3K6; [2]): 0% | inhibition at 10 µM (MAP3K6; read-out: inhibition (10 μM)): -5.4% | inhibition at 10 µM (PAK2; [2]): 0% | inhibition at 10 µM (PAK2; read-out: inhibition (10 μM)): 20.2% | inhibition at 10 µM (LATS2; [2]): 0% | inhibition at 10 µM (LATS2; read-out: inhibition (10 μM)): 1.1% | inhibition at 10 µM (PIP4K2B; [2]): 0% | inhibition at 10 µM (PIP4K2B; read-out: inhibition (10 μM)): -31.5% | % inhibition (MER, TYRO3): 0.0% | inhibition (10 μM) (MER, TYRO3): −2.0% | inhibition at 10 µM (GAK; [2]): 50 to 75% | inhibition at 10 µM (GAK; read-out: inhibition (10 μM)): 51.1% | inhibition at 10 µM (MAP3K3; [2]): 0% | inhibition at 10 µM (MAP3K3; read-out: inhibition (10 μM)): -5.7% | inhibition at 10 µM (TAK1; [2]): 35 to 40% | inhibition at 10 µM (TAK1; read-out: inhibition (10 μM)): 39.1% | % inhibition (PCTAIRE1, PCTAIRE3): 0.0% | inhibition (10 μM) (PCTAIRE1, PCTAIRE3): −3.5% | inhibition at 10 µM (ULK3; [2]): 0% | inhibition at 10 µM (ULK3; read-out: inhibition (10 μM)): -14.2% | inhibition at 10 µM (MAP3K15; [2]): 35 to 40% | inhibition at 10 µM (MAP3K15; read-out: inhibition (10 μM)): 46.7% | inhibition at 10 µM (AGK; [2]): 0% | inhibition at 10 µM (AGK; read-out: inhibition (10 μM)): 11.5% | inhibition at 10 µM (MELK; [2]): 35 to 40% | inhibition at 10 µM (MELK; read-out: inhibition (10 μM)): 45.9% | % inhibition (PCTAIRE2, PCTAIRE3): 0.0% | inhibition (10 μM) (PCTAIRE2, PCTAIRE3): −8.9% | inhibition at 10 µM (LZK; [2]): 0% | inhibition at 10 µM (LZK; read-out: inhibition (10 μM)): 1.3% | % inhibition [1]: 75-90% | inhibition (10 μM) [1]: 84.0% | inhibition at 10 µM (MLK4; [2]): 0% | inhibition at 10 µM (MLK4; read-out: inhibition (10 μM)): 30.2% | inhibition at 10 µM (CLK3; [2]): 0% | inhibition at 10 µM (CLK3; read-out: inhibition (10 μM)): 1.5%

Nc1ncc(-c2ccc(NS(=O)(=O)C3CC3)cc2F)cc1-c1ccc2c(c1)CCNC2=O [Compound I-51, N-(4-(6-amino-5-(1-oxo-1,2,3,4-tetrahydroisoquinolin-6-yl)pyridin-3-yl)-3-fluorophenyl) cyclopropanesulfonamide]
inhibition at 10 µM (PYK2; [2]): 0% | inhibition at 10 µM (PYK2; read-out: inhibition (10 μM)): 30.1% | inhibition at 10 µM (Erk5; [2]): 0% | inhibition at 10 µM (Erk5; read-out: inhibition (10 μM)): -13.2% | inhibition at 10 µM (MAP3K6; [2]): 0% | inhibition at 10 µM (MAP3K6; read-out: inhibition (10 μM)): 24.4% | inhibition at 10 µM (PAK2; [2]): 0% | inhibition at 10 µM (PAK2; read-out: inhibition (10 μM)): -14% | inhibition at 10 µM (LATS2; [2]): 0% | inhibition at 10 µM (LATS2; read-out: inhibition (10 μM)): 16.1% | inhibition at 10 µM (PIP4K2B; [2]): 0% | inhibition at 10 µM (PIP4K2B; read-out: inhibition (10 μM)): -47.1% | % inhibition (MER, TYRO3): 0.0% | inhibition (10 μM) (MER, TYRO3): −11.0% | inhibition at 10 µM (GAK; [2]): 50 to 75% | inhibition at 10 µM (GAK; read-out: inhibition (10 μM)): 50.4% | inhibition at 10 µM (MAP3K3; [2]): 0% | inhibition at 10 µM (MAP3K3; read-out: inhibition (10 μM)): -29.3% | inhibition at 10 µM (TAK1; [2]): 0% | inhibition at 10 µM (TAK1; read-out: inhibition (10 μM)): 30% | % inhibition (PCTAIRE1, PCTAIRE3): 0.0% | inhibition (10 μM) (PCTAIRE1, PCTAIRE3): 29.4% | inhibition at 10 µM (ULK3; [2]): 0% | inhibition at 10 µM (ULK3; read-out: inhibition (10 μM)): 1.8% | inhibition at 10 µM (MAP3K15; [2]): 35 to 40% | inhibition at 10 µM (MAP3K15; read-out: inhibition (10 μM)): 36.4% | inhibition at 10 µM (AGK; [2]): 0% | inhibition at 10 µM (AGK; read-out: inhibition (10 μM)): -12.1% | inhibition at 10 µM (MELK; [2]): 35 to 40% | inhibition at 10 µM (MELK; read-out: inhibition (10 μM)): 49.5% | % inhibition (PCTAIRE2, PCTAIRE3): 0.0% | inhibition (10 μM) (PCTAIRE2, PCTAIRE3): 5.1% | inhibition at 10 µM (LZK; [2]): 0% | inhibition at 10 µM (LZK; read-out: inhibition (10 μM)): 11.3% | % inhibition [1]: 75-90% | inhibition (10 μM) [1]: 76.2% | inhibition at 10 µM (MLK4; [2]): 0% | inhibition at 10 µM (MLK4; read-out: inhibition (10 μM)): 14.2% | inhibition at 10 µM (CLK3; [2]): 0% | inhibition at 10 µM (CLK3; read-out: inhibition (10 μM)): 23.3%
